Experimental data as given in patent US10556860B2, “hTERT modulators and methods of use” (Arizona Board of Regents on Behalf of the University of …, priority 2015, dated 2020).

Tests used:
G124A 5-12 G-quadruplex = assay: CD kinetics, temperature-jump, G124A; type: biochemical, human; details: 2 equiv
Procedure: FIGS. 10A and 10B are a set of graphs showing (A) comparison of kinetics of initial folding rate of the WT 5-12 G-quadruplex with GTC365 and BRACO-19 by the temperature-jump method. (B) Enhanced initial folding rate of the 5-12 G-quadruplexes carrying different hTERT mutants by GTC365. The time-course CD signal of preheated oligo with compound or DMSO in a buffer containing 10 mM Tris-HCl (pH 7.5) and 5 mM KCl was monitored at 262 nm and 25° C.
For the kinetics analysis using the temperature-jump method, theoligo in a buffer containing 10 mM Tris-HCl (pH 7.5) was heated forl min at 95° C., and then a mixture of KCl and compound was addedand incubated for 1 min. Meanwhile, the CD cuvette was also heatedat 95° C. As soon as the sample in the CD cuvette at the hightemperature was placed in the CD chamber, a time-dependent CDsignal at 262 nm was recorded immediately. The initial folding ratewas determined by one-phase association curve fitting (eq 1) of thekinetics curve using GraphPad Prism 5: Y=Y0+(Plateau−Y0)*(1−e^−kx) (1) where Y is the CD signal at any time point x, Y0 is the Y value whentime (x) is zero, plateau is the Y value at infinite time, and k is the rateconstant.
To evaluate the comparative effects of GTC365 relative to BRACO-19 on the cooperative folding process, we carried out two different experiments. […]

MCF7 cells [1] = assay: Cell cycle analysis by PI staining; type: cell-based, human; details: 48 h treatment
Procedure: Cell cycle analysis by PI staining. MCF7 cells were treated with GTC365 for 48 h. Cells were trypsinized and washed with cold D-PBS. Cell pellets were subjected to 70% EtOH fixation at −20° C. overnight. Cells were incubated with RNase A and PI for 3 h at 37° C. and then kept in ice before FACS analysis (FACScanto II, BD Biosciences, San Jose, Calif.).
(§1) Since knockdown of hTERT arrests the cell cycle in the G0/G1 phase, the effects of GTC365 on the cell cycle were evaluated. GTC365 increased the population of the G0/G1 (from 57% to 71%) and G2/M phases (from 10% to 19%), whereas the S-phase was decreased (from 33% to 10%) in a dose-dependent manner with 48 h treatment. […] It is known that various anticancer drugs induce SLP in different cancer cells, leading to mitotic catastrophe as well as apoptotic cell death. Doxorubicin, one of the representative anticancer drugs, induced apoptosis and mitotic catastrophe accompanied by multiple nuclei with SLP. GTC365, like doxorubicin, appears to arrest cell proliferation and induce cell death, apoptosis, or mitotic catastrophe through downregulation of hTERT.

[2] = tested on: UACC-903, a G124A mutant melanoma cell line; assay: Viability of G124A mutant melanoma cells; type: cell-based, human; details: 72 h
Procedure: FIGS. 13A-13C are a set of graphs showingselective reduction in viability (A) and hTERT expression (B) in melanoma cells carrying hTERT core promotor mutations. NHM-002 (normal human melanocytes) and a G124A mutant cell line were treated with vehicle, 1.25, 2.5, and 5 μM GTC365 for 72 h. Viability was reduced in hTERT mutant melanoma cells by 50% (left). […] (C) Differential response to GTC365 in WT and promoter mutant cell lines.
Next, to assess the selectivity of GTC365 for hTERT-dependent cancer cells relative to normal precursorcells, we compared the effects of a range of […] on viability at 72 h in normal humanmelanocytes (NHM-002) relative to those of UACC-903, aG124A mutant (FIG. 13A). […] To confirm that the reduction in cell viability was aresult of hTERT downregulation, we performed reverse transcription and qPCR to measure the mRNA level of hTERT expression in cells treated with DMSO or 5 μMGTC365. hTERT expression was reduced by 41% in themelanoma cell line after 72 h but was undetectable in normalmelanocytes, even in the absence of GTC365 (FIG. 13B). Finally, tobroadly assess the selectivity of GTC365 for hTERT promotermutant versus WT cells, we conducted a 6-point 72 h MTSproliferation assay to determine EC50s in 14 additional melanoma cell lines with characterized TERT promoter status([…]) (FIG. 13C). […]

MCF7 cells [3] = assay: Counting of live cells treated with GTC365; type: cell-based, human; details: low dose, nine days
Procedure: Counting of live cells treated with GTC365. MCF7 cells were treated with DMSO or 0.5 μM of GTC365. Cells were trypsinized and then subjected to trypan blue exclusion staining for counting of live cells using microscopy every three days. Afterward, 70% of cells were recultured with fresh media and DMSO or GTC365. Relative cell numbers compared to the DMSO were obtained.
as §1

With `N=C(N)NCCCS(=O)(=O)Nc1ccc(Nc2c3ccccc3nc3cc([N+](=O)[O-])ccc23)cc1` [GTC365] the “increase of initial folding rate” value (G124A 5-12 G-quadruplex) was 0.049 s⁻¹, the “population in G2/M phase” value (MCF7 cells [1]; from 10% without compound) was 19% and the “population in S-phase” value (MCF7 cells [1]; from 33% without compound) was 10%. For the same compound, the “population in G0/G1 phase” value (MCF7 cells [1]; from 57% without compound) was 71%, the viability ([2]; 5 μM) was “below 50%” and the reduction of viability ([2]; hTERT mutant melanoma cells, up to 5 μM) was 50%. For the same compound, the “cell death of cells showing SLP” value (MCF7 cells [3]) was “underwent cell death”.
